Some test systems named below: 786-0 renal; ACHN renal; MALME-3M melanoma; NCI-H522 lung; OVCAR-8 ovarian; SK-MEL-2 melanoma; SK-MEL-5 melanoma; U251 CNS; DU-145 prostate.
Assay in all cases: growth of human tumour cells (NCI), 48 h

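All cell lines were grown in 96-well plates and treated with compound for 48 hours. GI50: concentration for 50% inhibition of growth. Definition used: TGI = concentration required for complete inhibition of growth.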 Some results are limits rather than exact numbers.

Regarding `O=C(NCCCCN=c1cccccc1NCCCCNC(=O)OCc1ccccc1)OCc1ccccc1`, the TGI with 786-0 renal was 31.8 µM; with ACHN renal it was 59.5 µM; with MALME-3M melanoma it was 40.6 µM; with NCI-H522 lung it was 36.8 µM; in the assay with OVCAR-8 ovarian it was 47.7 µM; in the assay on SK-MEL-2 melanoma, 36.9 µM. Besides, the TGI in the assay on SK-MEL-5 melanoma worked out at 33.1 µM; in the assay with U251 CNS it was 32.1 µM.

Regarding `CCOC(=O)C1(c2ccccc2)CCC(=O)CC1`, the TGI with 786-0 renal, in the assay on ACHN renal, with MALME-3M melanoma, in the assay with NCI-H522 lung, in the assay on OVCAR-8 ovarian and with SK-MEL-2 melanoma was above 100 µM each time. Moreover, the TGI with SK-MEL-5 melanoma and in the assay with U251 CNS was above 100 µM each time.

Turning to `CN(C)c1c([O-])c(=[N+](C)C)c1=O`, the TGI with 786-0 renal, in the assay with ACHN renal, in the assay on NCI-H522 lung, in the assay with OVCAR-8 ovarian, in the assay on SK-MEL-2 melanoma and in the assay on U251 CNS was above 100 µM each time.

For the molecule `CC[C@@]12N=C(N(C)C)C[C@]1(O)ON=C2C`, the TGI with 786-0 renal, in the assay with ACHN renal, in the assay on MALME-3M melanoma, in the assay with NCI-H522 lung, with OVCAR-8 ovarian and in the assay on SK-MEL-2 melanoma was above 100 µM throughout. The TGI in the assay with SK-MEL-5 melanoma and in the assay on U251 CNS was above 100 µM in each case.

Take `O=C(O)CSc1n[nH]c(-c2ccccc2)n1`: the TGI with 786-0 renal, in the assay with ACHN renal, in the assay with MALME-3M melanoma, in the assay with NCI-H522 lung, in the assay on OVCAR-8 ovarian and with SK-MEL-2 melanoma was above 100 µM throughout. Besides, the TGI in the assay on SK-MEL-5 melanoma and with U251 CNS was above 100 µM each time.

`O=c1[nH]cc(COCCO)c(=O)[nH]1`: the TGI with 786-0 renal, with ACHN renal, with MALME-3M melanoma, in the assay on NCI-H522 lung, with OVCAR-8 ovarian and with SK-MEL-2 melanoma was above 100 µM each time. The TGI in the assay on SK-MEL-5 melanoma and in the assay with U251 CNS was above 100 µM in each case.

In the case of `COc1ccc(C(O)c2nccn2C)c(OC)c1` (stereo not given), the TGI in the assay with 786-0 renal, in the assay with ACHN renal, with DU-145 prostate, in the assay on MALME-3M melanoma, in the assay on NCI-H522 lung and in the assay with OVCAR-8 ovarian was above 100 µM throughout. For the same molecule, the TGI in the assay with SK-MEL-2 melanoma, in the assay on SK-MEL-5 melanoma and in the assay on U251 CNS was above 100 µM each time.

For `O=C1c2ccccc2C2(O)c3cc4ccccc4cc3OC12O` (stereo not given), the TGI with 786-0 renal, in the assay on ACHN renal, with MALME-3M melanoma, in the assay on NCI-H522 lung, in the assay on OVCAR-8 ovarian and in the assay on SK-MEL-2 melanoma was above 100 µM each time. Moreover, the TGI is 86.9 µM in the assay on SK-MEL-5 melanoma and above 100 µM in the assay with U251 CNS.

For the molecule `Cc1ccc(NC(=O)C2C(=O)N(c3ccc(C)c(C)c3)C(=O)C2N=N)cc1C` (stereo not given), the TGI with 786-0 renal, in the assay on ACHN renal, with MALME-3M melanoma, in the assay on NCI-H522 lung, in the assay on OVCAR-8 ovarian and in the assay with SK-MEL-2 melanoma was above 100 µM throughout. Moreover, the TGI in the assay on SK-MEL-5 melanoma and with U251 CNS was above 100 µM throughout.

For `O=C(Nc1cc(Cl)ccc1Cl)c1cc2cccc(Cl)c2oc1=O`, the TGI in the assay on 786-0 renal, with ACHN renal, with MALME-3M melanoma, in the assay on NCI-H522 lung, with OVCAR-8 ovarian and in the assay with SK-MEL-5 melanoma was above 100 µM each time. For the same molecule, in the assay with U251 CNS, the TGI was above 100 µM.

Turning to `O=C(CSc1nnc(-c2ccc(N=Cc3ccc(Cl)cc3)cc2)o1)Nc1ccc(Cl)cc1`, the TGI with 786-0 renal, in the assay on ACHN renal, with MALME-3M melanoma, in the assay on NCI-H522 lung, in the assay on OVCAR-8 ovarian and with SK-MEL-2 melanoma was above 100 µM throughout. The TGI in the assay with SK-MEL-5 melanoma and with U251 CNS was above 100 µM each time.

Take `CC(=O)n1c2c(c(=O)n1-c1ccccc1)S(=O)CCC2` (stereo not given): the TGI in the assay on 786-0 renal is above 78.6 µM; in the assay on ACHN renal, above 100 µM; with MALME-3M melanoma it was above 100 µM; with NCI-H522 lung, 16.3 µM; with OVCAR-8 ovarian it was above 100 µM; in the assay with SK-MEL-2 melanoma, above 100 µM. Also, the TGI with SK-MEL-5 melanoma and with U251 CNS was above 100 µM in each case.

On to `CCc1c(OC(C)=O)c2c(NC3OC(COC(C)=O)C(OC(C)=O)C(OC(C)=O)C3OC(C)=O)nc(OC)nc2oc1=O` (stereo not given), for which the TGI in the assay with 786-0 renal, with ACHN renal, in the assay on MALME-3M melanoma, with OVCAR-8 ovarian, with SK-MEL-2 melanoma and with SK-MEL-5 melanoma was above 100 µM throughout. For the same molecule, in the assay with U251 CNS, the TGI is above 100 µM.

Regarding `CCCCCCC[CH2][Sn]1([CH2]CCCCCCC)[O]C(=O)c2cccnc2[S]1`, the GI50 with 786-0 renal, in the assay with ACHN renal, with MALME-3M melanoma, in the assay with NCI-H522 lung, in the assay on OVCAR-8 ovarian and in the assay with SK-MEL-2 melanoma was above 100 µM each time. Besides, the GI50 in the assay with SK-MEL-5 melanoma and in the assay with U251 CNS was above 100 µM throughout. For the same molecule, the TGI in the assay on 786-0 renal, with ACHN renal, in the assay with MALME-3M melanoma, in the assay with NCI-H522 lung, in the assay with OVCAR-8 ovarian and in the assay on SK-MEL-2 melanoma was above 100 µM throughout. Besides, the TGI with SK-MEL-5 melanoma and in the assay on U251 CNS was above 100 µM throughout.

As for `O=[N+]([O-])c1ccc(-n2nnc(C3=NCCN3)c2-c2ccc(Cl)cc2)cc1`, the TGI in the assay on 786-0 renal, in the assay on ACHN renal, in the assay with MALME-3M melanoma, with NCI-H522 lung, with OVCAR-8 ovarian and in the assay on SK-MEL-2 melanoma was above 100 µM in each case. Moreover, the TGI in the assay with SK-MEL-5 melanoma and in the assay with U251 CNS was above 100 µM in each case.

(Values after PubChem BioAssay (NCI).)
